Literature values as cited in PMC8513935.
One block for each molecule: values may come before it.

Assays:
[1] = log P octanol/water from commercial databases, averaged (the ESI); settings: Octanol (wet), 25 C
[2] = experimental, compiled by the authors from the literature (the ESI cites the sources)
[3] = derived by the authors as gas->solvent minus gas->water (a hypothetical dry solvent; the ESI), not a two-phase measurement

log K of transfer, water to solvent [1]: 1.72 log10 K
log K of transfer, gas to solvent ([2]; Butan-1-ol, 25 C): 1.26 log10 K
log K of transfer, gas to solvent ([2]; Hexadecane, 25 C): 1.31 log10 K
log K of transfer, gas to solvent ([2]; Hexane, 25 C): 1.45 log10 K
log K of transfer, gas to solvent ([2]; Perfluoroalkane, 25 C): 0.888 log10 K
log K of transfer, gas to solvent ([2]; Propan-1-ol, 25 C): 1.15 log10 K
log K of transfer, gas to solvent ([2]; Propan-2-ol, 25 C): 1.16 log10 K
log K of transfer, gas to solvent ([2]; Water, 25 C): -0.55 log10 K
log K of transfer, water to solvent ([3]; Butan-1-ol, 25 C): 1.81 log10 K
log K of transfer, water to solvent ([3]; Hexadecane, 25 C): 1.86 log10 K
log K of transfer, water to solvent ([3]; Hexane, 25 C): 2 log10 K
log K of transfer, water to solvent ([3]; Perfluoroalkane, 25 C): 1.44 log10 K
log K of transfer, water to solvent ([3]; Propan-1-ol, 25 C): 1.7 log10 K
log K of transfer, water to solvent ([3]; Propan-2-ol, 25 C): 1.71 log10 K
SMILES: C1CC1

log K of transfer, water to solvent [1]: 5.65 log10 K
log K of transfer, gas to solvent ([2]; 1,2-Dichloroethane, 25 C): 3.89 log10 K
log K of transfer, gas to solvent ([2]; Acetonitrile, 25 C): 3 log10 K
log K of transfer, gas to solvent ([2]; Butanone, 25 C): 3.9 log10 K
log K of transfer, gas to solvent ([2]; Butyronitrile, 25 C): 3.63 log10 K
log K of transfer, gas to solvent ([2]; CCl4, 25 C): 4.55 log10 K
log K of transfer, gas to solvent ([2]; Chlorobenzene, 25 C): 4.52 log10 K
log K of transfer, gas to solvent ([2]; Chloroform, 25 C): 4.42 log10 K
log K of transfer, gas to solvent ([2]; Cyclohexanone, 25 C): 3.84 log10 K
log K of transfer, gas to solvent ([2]; Dichloromethane, 25 C): 4.21 log10 K
log K of transfer, gas to solvent ([2]; Ethanol, 25 C): 3.52 log10 K
log K of transfer, gas to solvent ([2]; Hexadecane, 25 C): 4.18 log10 K
log K of transfer, gas to solvent ([2]; Hexane, 25 C): 4.51 log10 K
log K of transfer, gas to solvent ([2]; Methanol, 25 C): 3.23 log10 K
log K of transfer, gas to solvent ([2]; Perfluoroalkane, 25 C): 2.87 log10 K
log K of transfer, gas to solvent ([2]; Propan-1-ol, 25 C): 3.55 log10 K
log K of transfer, gas to solvent ([2]; Propan-2-ol, 25 C): 3.63 log10 K
log K of transfer, gas to solvent ([2]; Propanone, 25 C): 3.66 log10 K
log K of transfer, gas to solvent ([2]; Propionitrile, 25 C): 3.42 log10 K
log K of transfer, gas to solvent ([2]; Tetrahydrofuran, 25 C): 4.34 log10 K
log K of transfer, gas to solvent ([2]; Toluene, 25 C): 4.34 log10 K
log K of transfer, gas to solvent ([2]; Water, 25 C): -2.15 log10 K
log K of transfer, water to solvent ([3]; 1,2-Dichloroethane, 25 C): 6.04 log10 K
log K of transfer, water to solvent ([3]; Acetone, 25 C): 5.81 log10 K
log K of transfer, water to solvent ([3]; Acetonitrile, 25 C): 5.15 log10 K
log K of transfer, water to solvent ([3]; Butanone, 25 C): 6.05 log10 K
log K of transfer, water to solvent ([3]; Butyronitrile, 25 C): 5.78 log10 K
log K of transfer, water to solvent ([3]; CCl4, 25 C): 6.7 log10 K
log K of transfer, water to solvent ([3]; Chlorobenzene, 25 C): 6.67 log10 K
log K of transfer, water to solvent ([3]; Chloroform, 25 C): 6.57 log10 K
log K of transfer, water to solvent ([3]; Cyclohexanone, 25 C): 5.99 log10 K
log K of transfer, water to solvent ([3]; Dichloromethane, 25 C): 6.36 log10 K
log K of transfer, water to solvent ([3]; Ethanol, 25 C): 5.67 log10 K
log K of transfer, water to solvent ([3]; Hexadecane, 25 C): 6.33 log10 K
log K of transfer, water to solvent ([3]; Hexane, 25 C): 6.66 log10 K
log K of transfer, water to solvent ([3]; Methanol, 25 C): 5.38 log10 K
log K of transfer, water to solvent ([3]; Perfluoroalkane, 25 C): 5.02 log10 K
log K of transfer, water to solvent ([3]; Propan-1-ol, 25 C): 5.7 log10 K
log K of transfer, water to solvent ([3]; Propan-2-ol, 25 C): 5.78 log10 K
log K of transfer, water to solvent ([3]; Propionitrile, 25 C): 5.57 log10 K
log K of transfer, water to solvent ([3]; Tetrahydrofuran, 25 C): 6.49 log10 K
log K of transfer, water to solvent ([3]; Toluene, 25 C): 6.49 log10 K
SMILES: CCCCCCCCC

SMILES: OC1CCCCC1
log K of transfer, water to solvent [1]: 1.23 log10 K
log K of transfer, gas to solvent ([2]; Chloroform, 25 C): 5.13 log10 K
log K of transfer, gas to solvent ([2]; Decan-1-ol, 25 C): 5.48 log10 K
log K of transfer, gas to solvent ([2]; Hexadecane, 25 C): 3.76 log10 K
log K of transfer, gas to solvent ([2]; Octan-1-ol, 25 C): 5.18 log10 K
log K of transfer, gas to solvent ([2]; Propanone, 25 C): 5.09 log10 K
log K of transfer, gas to solvent ([2]; Water, 25 C): 4.01 log10 K
log K of transfer, water to solvent ([3]; Acetone, 25 C): 1.08 log10 K
log K of transfer, water to solvent ([3]; Chloroform, 25 C): 1.12 log10 K
log K of transfer, water to solvent ([3]; Decan-1-ol, 25 C): 1.48 log10 K
log K of transfer, water to solvent ([3]; Hexadecane, 25 C): -0.252 log10 K
log K of transfer, water to solvent ([3]; Octan-1-ol(dry), 25 C): 1.17 log10 K

log K of transfer, water to solvent [1]: 3.07 log10 K
log K of transfer, gas to solvent ([2]; Benzene, 25 C): 5.91 log10 K
log K of transfer, gas to solvent ([2]; Butanone, 25 C): 6.01 log10 K
log K of transfer, gas to solvent ([2]; Butyronitrile, 25 C): 5.69 log10 K
log K of transfer, gas to solvent ([2]; CCl4, 25 C): 5.09 log10 K
log K of transfer, gas to solvent ([2]; Hexadecane, 25 C): 4.62 log10 K
log K of transfer, gas to solvent ([2]; Hexan-1-ol, 25 C): 6.29 log10 K
log K of transfer, gas to solvent ([2]; Methanol, 25 C): 5.89 log10 K
log K of transfer, gas to solvent ([2]; Octan-1-ol, 25 C): 6.03 log10 K
log K of transfer, gas to solvent ([2]; Water, 25 C): 3 log10 K
log K of transfer, water to solvent ([3]; Benzene, 25 C): 2.91 log10 K
log K of transfer, water to solvent ([3]; Butanone, 25 C): 3.01 log10 K
log K of transfer, water to solvent ([3]; Butyronitrile, 25 C): 2.69 log10 K
log K of transfer, water to solvent ([3]; CCl4, 25 C): 2.09 log10 K
log K of transfer, water to solvent ([3]; Hexadecane, 25 C): 1.62 log10 K
log K of transfer, water to solvent ([3]; Hexan-1-ol, 25 C): 3.29 log10 K
log K of transfer, water to solvent ([3]; Methanol, 25 C): 2.89 log10 K
log K of transfer, water to solvent ([3]; Octan-1-ol(dry), 25 C): 3.03 log10 K
SMILES: CCCCCCCCO

log K of transfer, water to solvent [1]: 1.25 log10 K
log K of transfer, gas to solvent ([2]; 1,2-Dichloroethane, 25 C): 4 log10 K
log K of transfer, gas to solvent ([2]; CCl4, 25 C): 3.45 log10 K
log K of transfer, gas to solvent ([2]; Hexadecane, 25 C): 2.84 log10 K
log K of transfer, gas to solvent ([2]; Water, 25 C): 3.22 log10 K
log K of transfer, water to solvent ([3]; 1,2-Dichloroethane, 25 C): 0.78 log10 K
log K of transfer, water to solvent ([3]; CCl4, 25 C): 0.23 log10 K
log K of transfer, water to solvent ([3]; Hexadecane, 25 C): -0.38 log10 K
SMILES: CCCC(C)O (stereo not shown)
